# Tests used:
# [1] = system: c-myc G-quadruplex (DNA, G4) TGAGGGTGGTGAGGGTGGGGAAGG; test: fluorescence titration, plate reader; conditions: 2 nM compound; site 1 of 2
# [2] = system: c-myc G-quadruplex (DNA, G4) TGAGGGTGGTGAGGGTGGGGAAGG; test: ITC; conditions: K+ (50 mM KCl, 10 mM potassium phosphate); pH 7.0, 25 °C; site 1 of 2
# [3] = system: tel22 G-quadruplex (DNA, G4) AGGGTTAGGGTTAGGGTTAGGG; test: fluorescence titration, plate reader; conditions: 2 nM compound
# [4] = system: c-kit21 G-quadruplex (DNA, G4) CGGGCGGGGCGCGAGGAAAA; test: fluorescence titration, plate reader; conditions: 2 nM compound; site 1 of 2
# [5] = system: bcl-2 G-quadruplex (DNA, G4) AGGGGCGGGCGCGGGAGGAAGGGGGCGGGAGCGGGGCTG; test: fluorescence titration, plate reader; conditions: 2 nM compound; site 1 of 2
# [6] = system: c-myc mutant DNA (DNA, single strand) TGAAAATAATGAAAATAAAAAAGA; test: fluorescence titration, plate reader; conditions: 2 nM compound
# [7] = system: c-myc duplex (DNA, duplex) TGAGGGTGGTGAGGGTGGGGAAGG/CCTTCCCCACCCTCACCACCCTCA; test: fluorescence titration, plate reader; conditions: 2 nM compound; site 1 of 2
# [8] = system: c-myc mutant DNA (DNA, single strand) TGAAAATAATGAAAATAAAAAAGA; test: ITC; conditions: K+ (50 mM KCl, 10 mM potassium phosphate); pH 7.0, 25 °C; ~10^4 fold lower affinity than c-myc G4
# [9] = system: c-myc duplex (DNA, duplex) TGAGGGTGGTGAGGGTGGGGAAGG/CCTTCCCCACCCTCACCACCCTCA; test: ITC; conditions: K+ (50 mM KCl, 10 mM potassium phosphate); pH 7.0, 25 °C; ~10^4 fold lower affinity than c-myc G4
# [10] = system: c-myc mutant DNA (DNA, single strand) TGAAAATAATGAAAATAAAAAAGA; test: gel retardation, native PAGE; conditions: K+ (50 mM KCl, 10 mM potassium phosphate); pH 7.0, 25 °C; 10 µM DNA; up to 100 µM compound
smiles,measurement,setting,value
Cc1ccc(NC(=S)Nc2ccccc2)cc1,Kd1,[1],1.34 ± 0.13 µM
O=C(/C=C/C=C/c1ccc2c(c1)OCO2)N1CCCCC1,Ka1,[2],4.56 × 10^5 ± 0.03 M^-1
Oc1ccccc1NCCNc1ccccc1O,Kd1,[1],2.56 ± 0.02 µM
CC(CCN=Cc1ccccc1O)N=Cc1ccccc1O (centres unmarked),Kd1,[1],3.76 ± 0.03 µM
CC(=NNC(=S)NN=C(C)c1ccccc1)c1ccccc1,Kd1,[1],2.86 ± 0.03 µM
CC(C)=NOC(=O)Nc1ccc(Cl)cc1,Ka1,[2],3.34 × 10^5 ± 0.4 M^-1
same,Kd1,[1],0.010 ± 0.003 µM
same,Kd2,"[3]; stronger of two sites, printed as Kd2 (Kd1 3.47)",2.89 ± 0.03 µM
same,Kd1,[4],1.71 ± 0.005 µM
same,Kd1,[5],0.761 ± 0.01 µM
same,Kd1,[6]; site 1 of 2,0.023 ± 0.03 µM
same,Kd1,[7],0.559 ± 0.03 µM
O=S(=O)(NCCNS(=O)(=O)c1ccccc1)c1ccccc1,Ka1,[2],3.81 × 10^7 ± 0.01 M^-1
same,binding,[8],weak
same,binding,[9],weak
same,binding,[10],no
same,Kd1,[1],0.002 ± 0.001 µM
same,Kd1,[3]; site 1 of 2,0.19 ± 0.02 µM
same,Kd1,[4],4.86 ± 0.02 µM
same,Kd1,[5],0.024 ± 0.009 µM
same,Kd2,[6],0.195 ± 0.04 µM
same,Kd1,[7],1.81 ± 0.09 µM
O=C(CC(=O)Nc1ccccc1)Nc1ccccc1,Kd1,[1],4.61 ± 0.05 µM

# Source: PMC8617303 (2021)
